The text below walks through data of PMC10928841, “Ames test study designs for nitrosamine mutagenicity testing: qualitative and quantitative analysis of key assay parameters” (Mutagenesis, 2023).

The structures appear in SMILES notation. Where two headings read alike, the source gives them in different places.

For series [1], the target named is CYP2E1 (Rattus norvegicus, UniProt P05182). Description: Effect of vehicle on CYP2E1 activity of rat liver S9 (chlorzoxazone 6-hydroxylation). As to conditions: induced rat liver S9; vehicle 7.7% (v/v); chlorzoxazone 10 µM; 30 min.
Series [2] has as its target CYP2E1 (Mesocricetus auratus, UniProt P51581). Kind of series: Effect of vehicle on CYP2E1 activity of hamster liver S9 (chlorzoxazone 6-hydroxylation). Particulars: vehicle 7.7% (v/v), chlorzoxazone 10 µM, 30 min; for effect on conversion of chlorzoxazone to 6-hydroxychlorzoxazone compared with water: induced hamster liver S9; for reduction of 6-hydroxychlorzoxazone formation compared with water: Aroclor-induced hamster liver S9.

Series [3] relates to S. typhimurium and E. coli tester strains. Kind of series: Benchmark dose (BMD) modelling of positive Ames test dose-response data. The class given is cell-based, Salmonella typhimurium and Escherichia coli. Particulars: BMR 100%; all positive combinations of vehicle, method, strain and S9. For orientation: The Ames test detects mutagens through reverse mutation in bacteria.
Method: Benchmark dose analyses were carried out using the freely available PROAST R-package (version 70.3) (http://www.proast.nl). Ames test dose–response data (with cytotoxic test concentrations removed) were analysed using the exponential model family recommended by EFSA for the assessment of continuous (geno)toxicity dose–response data [37]. Where combined analyses were used, dose–response relationships were analysed using the assay conditions discriminating the subgroups (i.e. sub-study) as a covariate. To prevent overfitting, more complex models with additional parameters were only accepted if the goodness-of-fit exceeded the critical value at P < .05. PROAST outputs designate potency (i.e. the benchmark dose (BMD)) and its two-sided, 90% confidence interval (i.e. the BMDL and BMDU) as the ‘Critical Effect Dose’ (i.e. yielding a CED, CEDL, and CEDU), respectively, for each level of the covariate. Using the combined-covariate BMD approach [38], the model parameters that required estimation for each subgroup and those that could be considered constant across subgroups were established for the combined dataset. In general, the combined analyses presented here assumed that parameters for the maximum response (parameter c), log-steepness (parameter d) were equal for all subgroups, while the background response (parameter a), potency (parameter b), and within-group variation (var) were tested for subgroup dependence [39]. Model fits were used to visually evaluate the validity of the assumption of conserved shape. […]
To further understand the impact of different test parameters on test outcomes, BMD-derived potency/sensitivity rankings [38] were generated from the dose–response relationships for NDMA and NDEA. […] Instead, the purpose is to quantitatively provide a means to compare the potency/sensitivity of different assay conditions, that is, bacterial strain, S9 source, vehicle, and plate/pre-incubation methods, to inform on optimal study designs for robust/sensitive mutagenicity calls. […]
Series [4] deals with E. coli WP2uvrA (pKM101). As to conditions: for increase in mutant frequency at the limit concentration: 5000 µg/plate.
In a further series the test system is Salmonella typhimurium. As to conditions: cited from earlier work.
A further series deals with S. typhimurium TA98. Kind of series: Ames test, pre-incubation method, TA98. Particulars: vehicle acetonitrile, up to 5000 µg/plate.
The test system of another series is S. typhimurium TA1537. Description: Ames test, pre-incubation method, TA1537. As to conditions: S9 hamster, vehicle acetonitrile, up to 5000 µg/plate.
Series [5] concerns E. coli WP2uvrA (pKM101). Description: Ames test, pre-incubation method, WP2uvrA (pKM101). Particulars: for increase in mutant frequency compared with vehicle controls: 5000 µg/plate.
Another series relates to rat. More on the design: method as in PMID 4230610. Particulars: historical data; cited from earlier work.
The test system of the next series is S. typhimurium TA100. Kind of series: Ames test, pre-incubation method, TA100.
The next series concerns S. typhimurium TA1535. Description: Ames test, pre-incubation method, TA1535. Particulars: hamster liver S9-mix, vehicle water, 5000 µg/plate.
Where [6] appears, read: plate incorporation, rat liver S9-mix, vehicle methanol, E. coli WP2uvrA (pKM101).
Setting [7] is: plate incorporation, rat liver S9-mix, vehicle water, E. coli WP2uvrA (pKM101).
Setting [8] is: rat liver S9-mix, vehicle methanol.

Chain of CYP2E1 (Mesocricetus auratus, UniProt P51581) (P51581 whole entry): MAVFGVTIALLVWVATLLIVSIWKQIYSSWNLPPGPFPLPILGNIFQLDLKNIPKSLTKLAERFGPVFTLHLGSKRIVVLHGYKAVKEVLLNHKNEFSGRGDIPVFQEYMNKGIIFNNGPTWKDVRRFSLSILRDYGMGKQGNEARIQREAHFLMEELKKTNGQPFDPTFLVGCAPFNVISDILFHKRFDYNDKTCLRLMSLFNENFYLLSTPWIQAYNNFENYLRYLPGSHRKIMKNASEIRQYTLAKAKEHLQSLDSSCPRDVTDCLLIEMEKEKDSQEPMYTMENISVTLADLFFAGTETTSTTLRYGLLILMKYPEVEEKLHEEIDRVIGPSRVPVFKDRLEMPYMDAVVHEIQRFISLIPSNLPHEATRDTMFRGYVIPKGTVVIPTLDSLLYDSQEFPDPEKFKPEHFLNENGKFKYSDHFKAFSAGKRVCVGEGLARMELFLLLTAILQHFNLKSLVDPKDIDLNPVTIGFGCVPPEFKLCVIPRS
Chain of CYP2E1 (Rattus norvegicus, UniProt P05182) (P05182 whole entry): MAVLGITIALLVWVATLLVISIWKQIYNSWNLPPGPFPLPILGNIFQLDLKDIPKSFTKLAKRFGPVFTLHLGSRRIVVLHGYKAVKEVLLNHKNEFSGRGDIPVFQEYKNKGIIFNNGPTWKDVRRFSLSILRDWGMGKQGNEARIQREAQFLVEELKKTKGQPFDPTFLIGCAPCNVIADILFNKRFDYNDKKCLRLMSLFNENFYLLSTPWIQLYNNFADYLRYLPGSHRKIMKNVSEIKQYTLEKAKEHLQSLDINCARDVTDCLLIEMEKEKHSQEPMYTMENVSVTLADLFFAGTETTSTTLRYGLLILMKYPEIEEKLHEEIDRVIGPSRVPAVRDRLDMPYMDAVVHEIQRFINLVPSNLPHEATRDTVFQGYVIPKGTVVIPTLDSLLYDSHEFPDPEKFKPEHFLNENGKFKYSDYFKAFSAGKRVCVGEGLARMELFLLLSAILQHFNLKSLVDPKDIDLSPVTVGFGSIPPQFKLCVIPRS

In the case of `C[S+](C)[O-]` [DMSO, dimethylsulfoxide], the “effect on conversion of chlorzoxazone to 6-hydroxychlorzoxazone compared with water” value (from here on “effect on conversion … compared with water”) at CYP2E1 [1] and on CYP2E1 [2] was “inhibit” each time.
Regarding `CO` [Methanol, methanol], at CYP2E1 [1], the “effect on conversion … compared with water” value was “negligible effect”. Also, the “reduction of 6-hydroxychlorzoxazone formation compared with water” value on CYP2E1 [2] was ~ 50%.
On to `CCN(CC)N=O` [NDEA, N-nitrosodiethylamine], for which, in [3], the “range in sensitivity/potency (BMD100 confidence intervals) across positive datasets” value is ~ 100 fold. In addition, the “Ames test strain WP2*” value in the series on E. coli WP2uvrA (pKM101) [4] is “+”. Besides, the “concentration giving concentration-dependent increases in mutant frequency” value in the series on E. coli WP2uvrA (pKM101) [4] (plate incorporation, rat liver S9-mix, all three vehicles water, methanol or DMSO, E. coli WP2uvrA (pKM101)) is at least 1500 µg/plate. Also, the “mutagenicity in the absence of metabolic activation” value in the series on Salmonella typhimurium (not tested in the current study) was “non-mutagenic”. For the same compound, the “Ames test strain TA98” value in the series on S. typhimurium TA98 (S9 hamster) and in the series with S. typhimurium TA98 (S9 rat) was “Toxic” throughout. The “Ames test strain TA1537” value with S. typhimurium TA1537 is given as “Toxic”.
Take `CN(C)N=O` [NDMA, N-Nitrosodimethylamine]: the “range in sensitivity/potency (BMD100 confidence intervals) across positive datasets” value in series [3] is ~ 1000 fold. Further, the figures for the “concentration giving an increase in revertant colonies compared with vehicle controls” value with E. coli WP2uvrA (pKM101) [4] (setting [6]) and with E. coli WP2uvrA (pKM101) [4] (setting [7]) were 5000 µg/plate and at least 1500 µg/plate, respectively. Besides, the “increase in mutant frequency compared with vehicle controls” value with E. coli WP2uvrA (pKM101) [5] (rat liver S9, vehicle methanol) came to 2 fold; with E. coli WP2uvrA (pKM101) [5] (rat liver S9, vehicle water) it was 2.6 fold.
For the compound `CCN(C)N=O` [NMEA, N-nitrosomethylethylamine], in series [3], the “range in sensitivity/potency (BMD100 confidence intervals) across positive datasets” value is on record as 1000 fold. Moreover, the “concentration giving an increase in revertant colonies compared with vehicle controls” value in the series on E. coli WP2uvrA (pKM101) [4] (setting [6]) is on record as at least 1500 µg/plate; with E. coli WP2uvrA (pKM101) [4] (setting [7]), at least 2500 µg/plate. Moreover, the “increase in mutant frequency at the limit concentration” value in the series on E. coli WP2uvrA (pKM101) [4] (setting [6]) is listed as 4.3 fold; in the series on E. coli WP2uvrA (pKM101) [4] (setting [7]), 2.7 fold. For the same compound, the “Ames test (legacy result)” value in the series on Salmonella typhimurium (historical data) was “negative”. In the series on rat, the rodent cancer bioassay entry is recorded as “positive”. For the same compound, the “fold-increase at the limit concentration” value in the series on S. typhimurium TA100 (hamster liver S9-mix, vehicle water, 5000 µg/plate) is given as 32 fold; with S. typhimurium TA1535 it was 275 fold. Further, in the series on S. typhimurium TA100 (setting [8]), the “concentration giving a concentration-related increase in revertant colonies” value was at least 1500 µg/plate. Besides, the “concentration giving a positive response” value in the series with E. coli WP2uvrA (pKM101) [5] (setting [8]) came out at 5000 µg/plate.
`CC(C)=O` [acetone]: on CYP2E1 [1], the “effect on conversion … compared with water” value is “negligible effect”. Besides, the “reduction of 6-hydroxychlorzoxazone formation compared with water” value on CYP2E1 [2] is on record as ~ 75%.
With `CC#N` [acetonitrile], the “effect on conversion … compared with water” value on CYP2E1 [1] and on CYP2E1 [2] was “inhibit” in each case.
